Tests used:
[1] = test system: NRF2; assay: NRF2/ARE Luciferase Reporter Assay (HEK293 stable cell line); assay type: cell-based, human; settings: 6 hrs exposure to varying concentrations, relative to vehicle, normalized to total protein
Description: NRF2/ARE Luciferase Reporter Assay NRF2 activity was monitored with a reporter cell line in which changes in NRF2 activity are coupled to the expression of firefly luciferase (NRF2/ARE Luciferase Reporter HEK293 Stable Cell Line). Luciferase activity was quantified with the Luciferase Assay System as per the manufacturer's instructions. Briefly, cells were plated at 125,000 cells/well in a 24-well plate. The following day, cells were treated with either vehicle or varying doses of sulforaphane, exemestane, or JQ-1 for 6 hours. Cells were then lysed in passive lysis buffer (Promega E1941) supplemented with protease inhibitors (Sigma). Lysates were then cleared at 16,000 g for 15 minutes at 4° C. 15 μL of each lysate was mixed with 5 μL of luciferase assay substrate (Promega). Total light was measured using a luminometer with a 10 second integration time with a delay of 2 seconds. Luciferase measurements were normalized to total protein and reported as normalized to the vehicle condition.

[2] = target: T1, TRPA1 (Homo sapiens, UniProt O75762); assay: Calcium imaging of HEK293 cells transiently expressing WT TRPA1; assay type: cell-based; settings: for inhibition of TRPA1 channel activity: applied after 4-HNE, 1 μM exemestane, 100 μM JQ-1, 10 μM sulforaphane; for activation of TRPA1: exemestane 1-100 μm, JQ-1 as high as 100 μM, 10 μM sulforaphane
T1 construct: expressed in transfected cells; host or cells: HEK293
T1 sequence (O75762 whole entry): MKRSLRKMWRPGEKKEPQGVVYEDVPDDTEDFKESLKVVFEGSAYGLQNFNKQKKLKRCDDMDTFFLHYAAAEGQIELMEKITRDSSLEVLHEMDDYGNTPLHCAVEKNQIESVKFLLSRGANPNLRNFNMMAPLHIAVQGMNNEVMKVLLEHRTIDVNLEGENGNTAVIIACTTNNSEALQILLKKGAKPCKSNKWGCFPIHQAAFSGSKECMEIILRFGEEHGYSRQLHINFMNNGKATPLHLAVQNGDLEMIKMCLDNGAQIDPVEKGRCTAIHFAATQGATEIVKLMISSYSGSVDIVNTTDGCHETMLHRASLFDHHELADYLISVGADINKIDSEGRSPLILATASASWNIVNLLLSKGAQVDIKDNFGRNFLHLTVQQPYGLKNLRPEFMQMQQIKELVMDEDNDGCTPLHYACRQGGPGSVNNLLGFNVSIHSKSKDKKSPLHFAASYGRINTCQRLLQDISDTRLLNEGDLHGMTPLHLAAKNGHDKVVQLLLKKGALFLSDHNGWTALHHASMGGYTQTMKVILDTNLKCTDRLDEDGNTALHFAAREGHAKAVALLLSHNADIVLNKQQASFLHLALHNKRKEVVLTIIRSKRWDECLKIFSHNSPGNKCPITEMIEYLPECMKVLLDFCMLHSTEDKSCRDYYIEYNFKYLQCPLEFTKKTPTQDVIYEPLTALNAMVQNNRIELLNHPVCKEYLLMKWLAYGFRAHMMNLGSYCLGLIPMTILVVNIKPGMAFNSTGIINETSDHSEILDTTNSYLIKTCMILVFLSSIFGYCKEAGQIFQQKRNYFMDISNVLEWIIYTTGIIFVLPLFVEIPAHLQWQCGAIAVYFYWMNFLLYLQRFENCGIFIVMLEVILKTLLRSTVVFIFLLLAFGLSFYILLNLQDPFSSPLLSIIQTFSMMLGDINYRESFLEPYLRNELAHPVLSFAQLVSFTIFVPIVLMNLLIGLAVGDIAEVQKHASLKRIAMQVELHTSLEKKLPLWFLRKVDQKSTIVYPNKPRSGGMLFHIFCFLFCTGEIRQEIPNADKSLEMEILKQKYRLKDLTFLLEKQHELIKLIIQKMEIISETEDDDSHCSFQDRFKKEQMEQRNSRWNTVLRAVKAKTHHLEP
Description: Calcium Imaging and Analysis Calcium imaging and analysis was performed as previously described (See Meixiong, J. et al. Elife 8, (2019)). Briefly, cells were imaged in calcium imaging buffer (CIB; 10 mM HEPES, 1.2 mM NaHCO3, 130 mM NaCl, 3 mM KCl, 2.5 mM CaCl2, 0.6 mM MgCl2, 20 mM glucose, and 20 mM sucrose at pH 7.4 and 290-300 mOsm). To monitor changes in intracellular [Ca^2+]([Ca^2+]i), cells were loaded with either 1 μM Fura 2-AM (HEK293 cells) or 1 μM Fluo 4-AM (trigeminal neurons) for 30 min in the dark at 37° C. in CIB just prior to imaging. With Fura 2-AM, emission at 510 nm was monitored following excitation at both 340 nm and 380 nm. With Fluo 4-AM, emission at 520 nm was monitored following excitation at 488 nm. Cells were identified as positively responding if [Ca^2+]i rose by 15% compared to baseline. Damaged, detached, high-baseline, and motion-activated cells were excluded from analysis.
HEK293 cells were plated on poly-D-lysine-coated coverslips and transiently transfected with the vector backbone or constructs encoding WT or mutant TRPA1. Unless otherwise noted, cells were imaged for 30 s to establish a baseline before compounds were added. Vehicle was first applied for 30 s, after which 100 μM iodoacetamide, 1 mM H2O2, or 100 μM 4-HNE was applied. CSF from cases and controls was diluted into calcium imaging buffer 1:50 prior to each trial. 50 μM of the non-selective TRP channel inhibitor ruthenium red was applied at the end of every imaging trial.

[3] = test system: maxillary nerves; assay: Myelin basic protein (MBP) immunostaining of maxillary nerves; assay type: in vivo, mouse; settings: ten days post-surgery; sulforaphane 10, exemestane 10, JQ-1 40 mg/kg, i.p. daily; vs vehicle-treated ligated nerves
Description: Histology Maxillary nerves from mice were dissected and fixed in cold 4% formaldehyde (v/v) overnight at 4° C. Tissues were then cryoprotected through a series of 10%, 20%, and 30% sucrose (w/v) gradients for 24 hrs each at 4° C. Tissues were then embedded in Optimal Cutting Temperature compound (OCT) and sectioned in 20 μm intervals with a cryostat, after which the sections were dried onto slides and kept at […]. Sections were then processed for immunohistochemistry.
Immunohistochemistry was performed as previously described (Vasavda C et al., Cell Chem Biol 2019; 26(10):1450-1460.e7, incorporated herein by reference in its entirety). Briefly, sections were post-fixed with 4% parafomaldehyde for 15 min at 25° C. and then permeabilized with 100% methanol for 7 min at −20° C. The slides were then pre-incubated in blocking solution (10% normal goat serum (ThermoFisher Scientific)) for 30 min at 25° C. Sections were incubated overnight at 4° C. with the appropriate primary antibodies in blocking solution. Sections were washed and incubated with the appropriate secondary antibodies diluted 1:250 in blocking solution for 1 h at 25° C. Tissues were then mounted with ProLong Gold Antifade Mountant with DAPI (Invitrogen).
MBP immunostaining: Mice were first dosed daily with either sulforaphane (10 mg/kg, i.p.), exemestane (10 mg/kg, i.p.), JQ-1 (40 mg/kg, i.p.), or the appropriate vehicle for two days before surgical ligation of the maxillary nerve, after which they were dosed every 24 h for 10 days thereafter. MBP immunostaining was performed ten days post-surgery. MBP stains were interpreted by a pathologist to morphologically assess the degree of damage from nerve injury and response to drug treatment. Antibodies: primary antibodies: chicken anti-MBP (1:500); secondary antibodies: goat anti-chicken (Alexa 488, A32931 Invitrogen).

[4] = test system: NRF2; assay: NRF2 stability, ubiquitination and nuclear translocation in HEK-293 cells overexpressing FLAG-KEAP1 and myc-NRF2; assay type: cell-based; settings: for stabilization of NRF2 / nuclear translocation of NRF2: 10 μM for 6 hours; for nuclear translocation of NRF2: nuclear myc-NRF2 vs vehicle; for inhibition of NRF2 ubiquitination: HEK-293 cells overexpressing FLAG-KEAP1, myc-NRF2 and HA-ubiquitin
Description: To determine a ratio of KFAP1 to NRF2 cDNA that best mimics baseline NRF2 activity, luciferase activity was measured 48 h after transfection with varying ratios of KEAP1 to NRF2 cDNA, normalized to total protein (FIG. 21A). Luciferase expression is controlled by a promoter that contains several NRF2 binding sites and is thus a measure of NRF2 activity. A 2.5 μg KFAP1 to 1 μg NRF2 cDNA ratio returned luciferase activity to baseline and was therefore employed for subsequent biochemical studies evaluating NRF2 stability and nuclear translocation. FIGS. 21B and 21C show the quantification (FIG. 21B) and immunoblots (FIG. 21C) of myc-NRF2, GAPDH, and H2B in whole cell lysates and cytoplasmic and nuclear subcellular fractions of HEK-293 cells overexpressing FLAG-KEAP1 and myc-NRF2, treated with vehicle, 10 μM MG-132, 10 μM sulforaphane (SF), 10 μM exemestane, or 10 μM JQ-1 for 6 hours. Data are expressed as a normalized ratio of nuclear myc-NRF2 compared to the vehicle-treated condition. FIG. 21D is immunoblots of lysates (input) and myc immunoprecipitate (IP) from HEK-293 cells overexpressing FLAG-KEAP1, myc-NRF2, and HA-ubiquitin. Data are either representative of or quantified from n=3 independent experiments except in FIG. 21A, where n=1 in triplicate. In FIG. 21A, mean f SEM depicted. In FIG. 21B, median and range depicted. *=P<0.05 and ns=P>0.05 by one-way ANOVA followed by post-hoc Dunnett's test.

[5] = test system: constrictive mouse model of trigeminal neuralgia; assay: Mechanical allodynia (Von Frey filament) after constriction of the maxillary nerve; assay type: in vivo; settings: i.p. daily, sulforaphane 10 mg/kg; for mechanical allodynia (analgesic effect): NRF2−/− mice, exemestane 10 mg/kg, JQ-1 40 mg/kg

SMILES	luciferase expression in the NRF2 reporter line [1]	inhibition of TRPA1 channel activity [2]	activation of TRPA1 [2]	nerve architecture by myelin basic protein staining [3]	stabilization of NRF2 [4]	nuclear translocation of NRF2 [4]	inhibition of NRF2 ubiquitination [4]	mechanical allodynia (analgesic effect) [5]	mechanical allodynia ([5]; TRPA1−/− mice, compared with genetic deletion of TRPA1 alone)
Cc1sc2c(c1C)C(c1ccc(Cl)cc1)=N[C@@H](CC(=O)OC(C)(C)C)c1nnc(C)n1-2 [JQ-1, (S)-tert-butyl 2-(4-(4-chlorophenyl)-2,3,9-trimethyl-6H-thieno[3,2-f][1,2,4]triazolo[4,3-a][1,4]diazepin-6-yl)acetate]	did not stimulate luciferase expression	Neither sulforaphane, exemestane, nor JQ-1 inhibited TRPA1 channel activity	do not activate TRPA1	better preserved nerve architecture with increased density of myelinated axons of varying sizes	neither stabilizes NRF2	does not	nor inhibits its ubiquitination	lowers	
C=C1C[C@@H]2[C@H](CC[C@]3(C)C(=O)CC[C@@H]23)[C@@]2(C)C=CC(=O)C=C12 [exemestane, 6-methylenandrosta-1,4-diene-3,17-dione]	similarly increased luciferase expression	Neither sulforaphane, exemestane, nor JQ-1 inhibited TRPA1 channel activity	did not activate TRPA1	better preserved nerve architecture with increased density of myelinated axons of varying sizes	both sulforaphane and exemestane do	promote nuclear translocation of NRF2	both sulforaphane and exemestane do	lose their analgesic effects	
C[S+]([O-])CCCCN=C=S (stereo not shown) [sulforaphane, 1-isothiocyanato-4-(methanesulfinyl)butane]	dose-dependently increased luciferase expression	Neither sulforaphane, exemestane, nor JQ-1 inhibited TRPA1 channel activity	Neither sulforaphane nor JQ-1 activate TRPA1	more normal architecture with myelinated axons of varying sizes	both sulforaphane and exemestane do	promote nuclear translocation of NRF2	both sulforaphane and exemestane do	lose their analgesic effects	did not lower
